The results in this text go back to patent publication US8735321B2, “Process for the production of particles comprising active agrochemical ingredients in amorphous form” (priority 2008, dated 2014).

The structures appear in SMILES notation.

This series can be described thus: crystal formation of active ingredient mixtures from acetone after one week storage at 20° C. Format: physicochemical. Particulars: stored one week at 20° C. How it is done:
The active ingredients were dissolved in acetone (see Table 1) and combined to give the mixing ratios (Table 2). The acetone was evaporated for two days at room temperature and then stripped off in vacuum for 5 h at 80° C. (method A). Temperature-insensitive active ingredients Were subsequently melted for an additional 15 h at 140° C. (method B). The samples were cooled to 20° C. in each case and stored for one week at 20° C.

Where [1] appears, read: method B (as A, then melted 15 h at 140° C.).

With `Cn1cc(C(=O)Nc2ccccc2-c2cc(F)c(F)c(F)c2)c(C(F)F)n1` [Fungicide A, N-(3′,4′,5′-trifluorobiphenyl-2-yl)-3-difluoromethyl-1-methyl-1H-pyrazole-4-carboxamide], the Crystal formation result under setting [1] is listed as “Yes”.

For the molecule `CC1(C)CCC(=Cc2ccc(Cl)cc2)C1(O)Cn1cncn1` (centres unmarked) [Triticonazole], the Crystal formation result under setting [1] is reported as “Yes”.

For the molecule `Fc1ccc([C@]2(Cn3cncn3)O[C@H]2c2ccccc2Cl)cc1` (racemic) [Epoxiconazole], the Crystal formation result under setting [1] is reported as “Yes”.

For the molecule `O=C(Nc1ccccc1-c1ccc(Cl)cc1)c1cccnc1Cl` [Boscalid], the Crystal formation entry under setting [1] was “Yes”.

Take `COCC(=O)N(c1c(C)cccc1C)C(C)C(=O)OC` (centres unmarked) [Metalaxyl]: the Crystal formation entry (method A (acetone evaporated, vacuum 5 h at 80° C.)) is “Yes”.
